Activity calls are given as the source filed them. The rule behind the calls is not given here.
Legend:
[1] = target: T1, Band 3 anion transport protein (Mus musculus) (UniProt P04919); assay: Inhibition of mouse Slc4a1 expressed in COS7 co-expressing EYFP-HIF assessed as effect on SCN(-) gradient at 25 uM by YFP-based fluorescence quenching assay
T1 sequence (whole entry): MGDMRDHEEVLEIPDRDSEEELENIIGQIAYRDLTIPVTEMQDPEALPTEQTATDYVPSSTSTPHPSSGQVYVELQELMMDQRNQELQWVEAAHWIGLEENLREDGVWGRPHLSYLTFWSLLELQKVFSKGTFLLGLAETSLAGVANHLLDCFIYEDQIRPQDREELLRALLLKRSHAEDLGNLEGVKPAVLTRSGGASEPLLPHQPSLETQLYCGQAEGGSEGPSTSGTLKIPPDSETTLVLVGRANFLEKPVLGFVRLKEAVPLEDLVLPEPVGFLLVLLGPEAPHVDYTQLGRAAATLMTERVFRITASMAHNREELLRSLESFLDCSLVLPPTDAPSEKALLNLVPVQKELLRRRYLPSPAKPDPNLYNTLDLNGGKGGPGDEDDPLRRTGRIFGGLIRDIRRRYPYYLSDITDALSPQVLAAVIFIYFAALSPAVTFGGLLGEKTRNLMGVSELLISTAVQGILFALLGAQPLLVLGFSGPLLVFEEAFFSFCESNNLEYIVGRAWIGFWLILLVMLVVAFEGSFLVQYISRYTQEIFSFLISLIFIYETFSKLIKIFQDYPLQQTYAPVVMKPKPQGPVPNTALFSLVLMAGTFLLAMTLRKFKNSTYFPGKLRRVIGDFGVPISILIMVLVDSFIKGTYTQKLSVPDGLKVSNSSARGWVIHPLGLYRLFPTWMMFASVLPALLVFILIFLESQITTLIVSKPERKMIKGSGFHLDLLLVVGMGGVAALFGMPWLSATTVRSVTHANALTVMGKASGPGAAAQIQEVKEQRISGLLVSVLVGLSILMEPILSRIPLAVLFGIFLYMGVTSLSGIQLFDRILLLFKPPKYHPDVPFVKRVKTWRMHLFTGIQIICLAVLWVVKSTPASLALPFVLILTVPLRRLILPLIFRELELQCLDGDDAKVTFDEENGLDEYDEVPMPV

Mus musculus [2] = assay: Potentiation of 20 mg/kg, ip furosemide-induced acute diuretic action in CD1 mouse assessed as increase in urinary Na+ excretion at 50 mg/kg, ip measured at 3 hrs relative to control; assay type: functional, organism-based
Mus musculus [3] = assay: Potentiation of 5 to 50 mg/kg, ip furosemide-induced acute diuretic action in CD1 mouse assessed as increase in urine volume at 50 mg/kg, ip relative to control; assay type: functional, organism-based
Homo sapiens [4] = species on record: Homo sapiens; assay: Inhibition of CaCC in human bronchial epithelial cells assessed as effect on short-circuit current at 25 uM pre-incubated for 30 mins
[5] = target: Cystic fibrosis transmembrane conductance regulator (Homo sapiens) (UniProt P13569); assay: Inhibition of CFTR in human bronchial epithelial cells assessed as effect on short-circuit current at 25 uM pre-incubated for 30 mins
Homo sapiens [6] = species on record: Homo sapiens; assay: Effect on gluconate gradient-induced Cl(-) efflux in NHBE cells at 25 uM; assay type: functional, cell-based
Homo sapiens [7] = species on record: Homo sapiens; assay: Effect on airway surface liquid pH in IL13-stimulated human CFBE at 25 uM by pH-sensitive fluorophore BCECF based fluorescence based assay; assay type: functional
Homo sapiens [8] = species on record: Homo sapiens; assay: Inhibition of potassium channel in human bronchial epithelial cells assessed as effect on short-circuit current at 25 uM pre-incubated for 30 mins
Homo sapiens [9] = species on record: Homo sapiens; assay: Effect on airway surface liquid pH in NHBE cells at 25 uM by pH-sensitive fluorophore BCECF based fluorescence based assay; assay type: functional, cell-based
Homo sapiens [10] = species on record: Homo sapiens; assay: Inhibition of ENaC in human bronchial epithelial cells assessed as effect on short-circuit current at 25 uM pre-incubated for 30 mins
Homo sapiens [11] = species on record: Homo sapiens; assay: Effect on airway surface liquid depth in NHBE cells at 25 uM by rhodamine B-dextran fluorescence based confocal microscopy; assay type: functional, cell-based
Pendrin (Homo sapiens) = target: T2, Pendrin (Homo sapiens) (UniProt O43511); assay: Inhibition of pendrin in human bronchial CFBE assessed as increase in airway surface liquid depth at 25 uM by rhodamine B-dextran fluorescence based confocal microscopy (reference value: -16 um)
T2 sequence (whole entry): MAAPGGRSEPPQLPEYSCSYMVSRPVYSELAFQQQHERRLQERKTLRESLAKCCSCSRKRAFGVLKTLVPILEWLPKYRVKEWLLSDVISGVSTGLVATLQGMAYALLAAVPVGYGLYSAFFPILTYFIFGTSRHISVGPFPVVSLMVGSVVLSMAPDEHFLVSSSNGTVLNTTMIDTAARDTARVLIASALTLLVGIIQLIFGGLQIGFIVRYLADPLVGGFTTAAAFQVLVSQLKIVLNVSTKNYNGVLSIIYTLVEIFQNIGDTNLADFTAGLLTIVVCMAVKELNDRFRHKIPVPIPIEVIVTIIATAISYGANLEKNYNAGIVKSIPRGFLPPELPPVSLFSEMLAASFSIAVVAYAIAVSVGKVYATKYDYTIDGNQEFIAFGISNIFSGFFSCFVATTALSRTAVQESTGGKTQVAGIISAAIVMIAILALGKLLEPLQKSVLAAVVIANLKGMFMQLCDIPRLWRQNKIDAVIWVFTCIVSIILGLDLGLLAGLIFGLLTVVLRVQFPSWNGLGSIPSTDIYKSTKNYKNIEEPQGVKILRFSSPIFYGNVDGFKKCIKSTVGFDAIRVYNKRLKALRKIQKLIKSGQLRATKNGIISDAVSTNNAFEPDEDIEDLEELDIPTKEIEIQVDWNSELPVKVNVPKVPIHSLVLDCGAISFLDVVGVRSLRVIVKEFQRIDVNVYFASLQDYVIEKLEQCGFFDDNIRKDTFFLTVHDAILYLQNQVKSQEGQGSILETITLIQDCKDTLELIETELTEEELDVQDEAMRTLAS

Chain of Cystic fibrosis transmembrane conductance regulator (Homo sapiens) (P13569 whole entry, looked up): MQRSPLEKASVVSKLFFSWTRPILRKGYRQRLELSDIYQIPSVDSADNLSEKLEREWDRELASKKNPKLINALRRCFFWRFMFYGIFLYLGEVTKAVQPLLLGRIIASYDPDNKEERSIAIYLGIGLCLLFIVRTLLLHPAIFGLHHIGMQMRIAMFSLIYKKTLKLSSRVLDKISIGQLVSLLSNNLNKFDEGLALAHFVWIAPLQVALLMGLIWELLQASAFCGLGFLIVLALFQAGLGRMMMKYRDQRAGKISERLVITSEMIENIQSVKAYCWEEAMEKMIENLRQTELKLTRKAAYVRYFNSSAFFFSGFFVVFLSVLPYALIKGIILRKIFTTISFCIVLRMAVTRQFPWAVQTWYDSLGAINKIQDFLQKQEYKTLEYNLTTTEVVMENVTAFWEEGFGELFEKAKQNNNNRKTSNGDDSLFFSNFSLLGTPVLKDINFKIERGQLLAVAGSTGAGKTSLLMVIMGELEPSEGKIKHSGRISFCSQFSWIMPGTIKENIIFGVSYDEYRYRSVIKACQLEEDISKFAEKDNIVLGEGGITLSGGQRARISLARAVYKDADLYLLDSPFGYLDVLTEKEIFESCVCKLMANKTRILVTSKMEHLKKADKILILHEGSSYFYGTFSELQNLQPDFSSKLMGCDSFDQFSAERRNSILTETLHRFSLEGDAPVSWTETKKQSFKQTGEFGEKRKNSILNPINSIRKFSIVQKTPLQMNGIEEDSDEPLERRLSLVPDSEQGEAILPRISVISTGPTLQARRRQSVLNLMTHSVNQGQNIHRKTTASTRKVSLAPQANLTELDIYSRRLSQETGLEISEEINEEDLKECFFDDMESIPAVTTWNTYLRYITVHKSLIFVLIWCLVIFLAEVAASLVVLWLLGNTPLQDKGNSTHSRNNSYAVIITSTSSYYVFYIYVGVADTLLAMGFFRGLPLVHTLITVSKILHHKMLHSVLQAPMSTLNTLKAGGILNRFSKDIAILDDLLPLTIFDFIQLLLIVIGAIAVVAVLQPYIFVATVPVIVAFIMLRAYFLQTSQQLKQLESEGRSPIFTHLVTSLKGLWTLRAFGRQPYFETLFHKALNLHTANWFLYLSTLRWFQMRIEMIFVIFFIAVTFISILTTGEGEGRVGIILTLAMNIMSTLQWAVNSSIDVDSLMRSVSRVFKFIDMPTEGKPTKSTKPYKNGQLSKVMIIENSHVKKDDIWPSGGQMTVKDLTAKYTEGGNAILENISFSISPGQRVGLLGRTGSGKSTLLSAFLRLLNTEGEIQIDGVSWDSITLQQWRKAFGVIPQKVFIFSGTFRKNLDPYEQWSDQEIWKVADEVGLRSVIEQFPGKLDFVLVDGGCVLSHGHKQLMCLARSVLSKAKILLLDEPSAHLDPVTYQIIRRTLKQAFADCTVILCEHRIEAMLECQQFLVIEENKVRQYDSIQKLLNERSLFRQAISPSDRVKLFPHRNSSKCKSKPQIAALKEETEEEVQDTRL

inhibition [1] | inhibition (Homo sapiens [4]) | inhibition [5] | inhibition (Homo sapiens [8]) | inhibition (Homo sapiens [10]) | Activity (Pendrin (Homo sapiens)) [µm] | SMILES | Activity (Mus musculus [2]) | Activity (Mus musculus [3]) | Activity (Homo sapiens [6]) | Activity (Homo sapiens [7]) | Activity (Homo sapiens [9]) | Activity (Homo sapiens [11])
inactive |  |  |  |  |  | Cc1n[nH]c(-c2cc(S(=O)(=O)NC3CCCc4ccccc43)c(C)s2)c1C (configuration not stated) | Active | Active |  |  |  | 
 | inactive | inactive | inactive | inactive | -8 | Cn1nc(COc2cccc(F)c2)c2c1CCN(C(=O)Nc1ccc(Cl)cc1)C2 |  |  | inactive | inactive | inactive | inactive
